Measured values published in PubChem BioAssay (NCI).
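Where inhibition never reached the appropriate level, the endpoint shown equals the highest concentration tested. Otherwise, values were interpolated linearly from a five-concentration, 48-hour dose response in 96-well plates. Here, GI50 denotes the concentration required for 50% inhibition of growth. The concentration for full growth arrest is given as TGI.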

Columns and labels:
Experiment in all cases: NCI anticancer screen, dose series, 48 h
SK-MEL-2 melanoma = test system: SK-MEL-2 melanoma
786-0 renal = test system: 786-0 renal
KM12 colon = test system: KM12 colon
SNB-19 CNS = test system: SNB-19 CNS
NCI-H460 lung = test system: NCI-H460 lung
HOP-62 NSCLC = test system: HOP-62 NSCLC
NCI-H522 lung = test system: NCI-H522 lung
MALME-3M melanoma = test system: MALME-3M melanoma
HL-60(TB) leukemia = test system: HL-60(TB) leukemia
MDA-MB-435 = test system: MDA-MB-435

Compound	GI50 (SK-MEL-2 melanoma) [µM]	TGI (SK-MEL-2 melanoma) [µM]	GI50 (786-0 renal) [µM]	TGI (786-0 renal) [µM]	GI50 (KM12 colon) [µM]	TGI (KM12 colon) [µM]	GI50 (SNB-19 CNS) [µM]	TGI (SNB-19 CNS) [µM]	GI50 (NCI-H460 lung) [µM]	TGI (NCI-H460 lung) [µM]	GI50 (HOP-62 NSCLC) [µM]	TGI (HOP-62 NSCLC) [µM]	GI50 (NCI-H522 lung) [µM]	TGI (NCI-H522 lung) [µM]	GI50 (MALME-3M melanoma) [µM]	TGI (MALME-3M melanoma) [µM]	GI50 (HL-60(TB) leukemia) [µM]	TGI (HL-60(TB) leukemia) [µM]	TGI (MDA-MB-435) [µM]	GI50 (MDA-MB-435) [µM]
CC(=O)[CH-]C(=O)c1ccccc1.CC(=O)[CH-]C(=O)c1ccccc1.CC[C@H](/C=C/C(C)[C@H]1CCC2[C@@H]3CC=C4C[C@@H]([O-])CC[C@]4(C)C3CC[C@@]21C)C(C)C.CC[O-].[Ti+4] (stereo partly drawn)	> 100	> 100	> 100	> 100	> 100	> 100	> 100	> 100	> 100	> 100	> 100	> 100	44.8	> 100	> 100	> 100	> 100	> 100	–	–
Cc1ccc(NC(=O)CC/C(CC(=O)C(C)(C)C)=N/NC(=O)C[N+](C)(C)C)cc1C	–	> 100	–	52.9	–	> 100	–	> 100	–	> 100	–	> 100	–	–	–	> 100	–	> 100	–	–
O=C1C=CC(=Nc2ccccc2)c2ccccc21	–	8.15	–	24.7	–	25.6	–	> 100	–	13.8	–	25.3	–	23.3	–	–	–	21.7	3.42	–
Cc1cc(=O)n2c3c(c4c(cc13)c(CO)cc(=O)n4C)OC2	–	25.1	–	> 100	–	> 100	–	> 100	–	> 100	–	40.2	–	17.7	–	28.5	–	–	–	–
CO[C@]12C=C/C(=C(/C(=O)OCc3cccnc3)C(=O)CCCCCCCC[C@@]3(OC)C=C/C(=C(/C(=O)OCc4cccnc4)C(=O)CCCCCCCC1)O3)O2	1.34	4	1.32	4.71	1.03	2.38	3.03	> 50	1.27	3.16	–	–	1.05	2.85	1.11	3.7	1.37	4.25	–	–
O=c1c2c(c3ccccc3n1-c1ccccc1)NC(=S)NC2c1ccc(Cl)cc1 (stereo not drawn)	3.62	32.4	3.94	24.4	1.88	11.7	4.07	> 100	1.16	6.47	4.83	56.3	–	–	–	–	3.6	45	31	3.27
CC1(c2cccc(N)c2)C2C(=O)NC(=O)C1C(=O)NC2=O (stereo not drawn)	–	57.7	–	> 100	–	> 100	–	> 100	–	> 100	–	> 100	–	46.3	–	95	–	43.2	–	–
CSc1nc2c(nc(N)n2C2OC(COC(C)=O)C(OC(C)=O)C(OC(C)=O)C2OC(C)=O)c(=O)n1C (stereo not drawn)	–	> 100	–	> 100	–	> 100	–	> 100	–	> 100	–	> 100	–	–	–	> 100	–	> 100	–	–
NCCCn1c2c(c3ccc([N+](=O)[O-])cc3c1=O)C(=O)c1cc(-c3ccccc3)ccc1-2	0.438	1.27	0.181	0.334	0.291	0.818	–	–	0.34	1.38	0.406	1.46	0.22	0.467	–	–	0.5	1.3	3.11	1.65
CC(=O)[CH-]C(=O)c1ccccc1.CC(=O)[CH-]C(=O)c1ccccc1.CC1(C)OCC(C2OC3OC(C)(C)OC3C2[O-])O1.CC1(C)OCC(C2OC3OC(C)(C)OC3C2[O-])O1.[Ti+4] (stereo not drawn)	7.49	25.5	11.8	27.3	13.2	42.8	–	–	11.3	28.4	17.9	36.2	–	–	10.5	28.5	–	–	–	–
O=[N+]([O-])c1ccc(Sc2nc(Cl)nc(NC3CCCC3)n2)cc1	> 10	> 10	> 10	> 10	> 10	> 10	> 10	> 10	> 10	> 10	> 10	> 10	–	–	> 10	> 10	> 10	> 10	> 10	> 10
Cn1cc(-c2csc(-c3cn(CCCCN4CCCCC4)c4ccc(F)cc34)n2)c2cccnc21	2.3	5.98	1.65	3.02	–	–	–	–	1.9	3.52	14	31.1	–	–	–	–	–	–	2.84	1.52
CSc1ccc(OCC2OC2O)cc1 (stereo not drawn)	–	> 100	–	> 100	–	> 95.9	–	> 100	–	> 100	–	> 100	–	> 81.6	–	> 100	–	> 83.5	–	–
C=C1CC[C@@H]2[C@](C)(COC(C)=O)[C@H](OC(C)=O)CC[C@@]2(C)[C@@H]1CC(Nc1ccc(S(=O)(=O)Nc2cc(C)on2)cc1)C1=CCOC1=O (stereo partly drawn)	2.04	4.4	1.96	3.66	1.83	3.69	3.12	12.2	2.35	5.7	8.88	22.9	1.04	2.42	–	–	1.39	3.69	4.37	1.74
C1COCCOCCOCCOCCOCCO1.[Cl][Sn]([Cl])([c]1ccccc1)[c]1ccccc1	1.7	3.25	2.41	5.51	12.6	26.4	6.48	14.5	15.1	30.5	20.3	35	0.766	2.05	1.99	3.82	2.64	7.55	–	–
COC(=O)NN1C(C)=C(C(=O)OC)C2(C#N)C(C(=O)OC)=C(C)N(NC(=O)OC)C12N (stereo not drawn)	–	> 100	–	> 100	–	–	–	> 100	–	> 100	–	> 100	–	> 100	–	> 100	–	> 100	–	–
COC(=O)NC(=Nc1ccc(Oc2ccccc2)cc1NC=O)NC(=O)OC	–	–	–	> 100	–	> 100	–	> 100	–	–	–	> 100	–	0.449	–	> 100	–	0.707	–	–
